Assay results reported in ChEMBL document CHEMBL1127354, “Nonpeptidic inhibitors of human leukocyte elastase. 3. Design, synthesis, X-ray crystallographic analysis, and structure-activity relationships for a series of orally active 3-amino-6-phenylpyridin-2-one trifluoromethyl ketones” (J Med Chem, 1994).

Tests used:
[1] = physchem; details: octanol/water
[2] = Maximum concentration of unchanged drug in plasma recorded in the period 0-6 hr of postdose in anesthetized rat at 25 mg/kg oral dose; format: ADME, organism-based; parameters: dose 25 mg/kg, route oral
[3] = Time taken to reach half of the concentration in blood plasma of anesthetized rat at 25 mg/kg oral dose; format: ADME, organism-based; parameters: dose 25 mg/kg, route oral
[4] = Oral bioavailability was measured at concentration of 25 mg/kg oral dose; format: ADME, organism-based; details: eutheria, in vivo
[5] = Time taken to reach maximum drug concentration in plasma of anesthetized rat at 25 mg/kg oral dose; format: ADME, organism-based; parameters: dose 25 mg/kg, route oral
[6] = Time taken to reach maximum drug concentration in plasma of hamster at 40 mg/kg oral dose; format: ADME, organism-based; parameters: dose 40 mg/kg, route oral; details: cricetinae
[7] = Time taken to reach half of the concentration in blood plasma of hamster at 40 mg/kg oral dose; format: ADME, organism-based; parameters: dose 40 mg/kg, route oral; details: cricetinae
[8] = Maximum concentration of unchanged drug in plasma recorded in the period 0-6 hr of postdose in dog at 5 mg/kg oral dose; format: ADME, organism-based, Canis lupus familiaris; parameters: dose 5 mg/kg, route oral
[9] = Oral bioavailability was measured at concentration of 5 mg/kg oral dose in dog; format: ADME, organism-based, Canis lupus familiaris; details: in vivo
[10] = Time taken to reach half of the concentration in blood plasma of dog at 5 mg/kg oral dose; format: ADME, organism-based, Canis lupus familiaris; parameters: dose 5 mg/kg, route oral
[11] = Maximum concentration of unchanged drug in plasma recorded in the period 0-6 hr of postdose to hamster at 40 mg/kg oral dose; format: ADME, organism-based; parameters: dose 40 mg/kg, route oral; details: cricetinae
[12] = Time taken to reach maximum drug concentration in plasma of dog at 5 mg/kg oral dose; format: ADME, organism-based, Canis lupus familiaris; parameters: dose 5 mg/kg, route oral
[13] = Oral bioavailability was measured at concentration of 40 mg/kg oral dose; format: ADME, organism-based; details: eutheria, in vivo
[14] = Maximum concentration of unchanged drug in plasma recorded in the period 0-6 hr of postdose in anesthetized rat at 60 mg/kg oral dose; format: ADME, organism-based; parameters: dose 60 mg/kg, route oral
[15] = Oral bioavailability was measured at concentration of 60 mg/kg oral dose; format: ADME, organism-based; details: eutheria, in vivo
[16] = Time taken to reach maximum drug concentration in plasma of anesthetized rat at 60 mg/kg oral dose; format: ADME, organism-based; parameters: dose 60 mg/kg, route oral
[17] = Partition coefficient (logP); format: physicochemical; details: octanol/water
[18] = Maximum concentration of unchanged drug in plasma recorded in the period 0-6 hr of postdose in hamster at 40 mg/kg oral dose; format: ADME, organism-based; parameters: dose 40 mg/kg, route oral; details: cricetinae
[19] = Oral bioavailability was measured at concentration of 40 mg/kg oral dose to hamster; format: ADME, organism-based, Cricetulus griseus; details: chinese hamster, in vivo

Row | logP [1] | SMILES | also measured
1 | 1.17 | CC(C)C(NC(=O)Cn1c(-c2ccccc2)ccc(NS(N)(=O)=O)c1=O)C(=O)C(F)(F)F (centres undefined) | –
2 | 1.77 | CC(C)C(NC(=O)Cn1c(-c2ccccc2)ccc(NS(C)(=O)=O)c1=O)C(=O)C(F)(F)F (centres undefined) | –
3 | 1.13 | CC(C)C(NC(=O)Cn1c(-c2ccccc2)ccc(NC(=O)NCc2cc[n+]([O-])cc2)c1=O)C(=O)C(F)(F)F (centres undefined) | –
4 | 2.15 | CC(C)C(NC(=O)Cn1c(-c2ccccc2)ccc(NC(=O)NCc2ccccn2)c1=O)C(=O)C(F)(F)F (centres undefined) | –
5 | 2.38 | Cc1cc(COC(=O)Nc2ccc(-c3ccccc3)n(CC(=O)NC(C(=O)C(F)(F)F)C(C)C)c2=O)cc(C)n1 (centres undefined) | –
6 | 3.86 | CC(C)C(NC(=O)Cn1c(-c2ccccc2)ccc(NC(=O)C(F)(F)F)c1=O)C(=O)C(F)(F)F (centres undefined) | –
7 | 0.35 | CC(C)C(NC(=O)Cn1c(-c2ccccc2)ccc(NC(=O)Cc2ccc(C(=O)O)cc2)c1=O)C(=O)C(F)(F)F (centres undefined) | –
8 | 1.91 | CC(C)C(NC(=O)Cn1c(-c2ccccc2)ccc(NC(=O)OCc2ccccn2)c1=O)C(=O)C(F)(F)F (centres undefined) | –
9 | – | CC(C)C(NC(=O)Cn1c(-c2ccccc2)ccc(NC(=O)OCc2ccccc2)c1=O)C(=O)C(F)(F)F (centres undefined) | Cmax [2]: 1890 ng/mL; half-life [3]: 3 h; bioavailability [4]: 59%; Tmax [5]: 1.4 h
10 | 1.74 | CC(C)C(NC(=O)Cn1c(-c2ccccc2)ccc(N)c1=O)C(=O)C(F)(F)F (centres undefined) | –
11 | 2 | CC(C)C(NC(=O)Cn1c(-c2ccccc2)ccc(NC(=O)CN2CCOCC2)c1=O)C(=O)C(F)(F)F (centres undefined) | –
12 | 2.41 | CC(C)C(NC(=O)Cn1c(-c2ccccc2)ccc(NC(=O)OCc2ccncc2)c1=O)C(=O)C(F)(F)F (centres undefined) | Tmax [6]: 0.25 h; half-life [7]: 1.3 h; Cmax [8]: 3150 ng/mL; bioavailability [9]: ~100%; half-life [10]: 0.8 h; Cmax [11]: 2770 ng/mL; Tmax [12]: 1 h; bioavailability [13]: 45%
13 | 2.16 | CC(C)C(NC(=O)Cn1c(-c2ccccc2)ccc(NC(=O)NCc2ccncc2)c1=O)C(=O)C(F)(F)F (centres undefined) | Cmax [14]: 75 ng/mL; bioavailability [15]: 2%; Tmax [16]: 3 h
14 | 0.84 | CC(C)C(NC(=O)Cn1c(-c2ccccc2)ccc(NC(=O)OCc2ccc(C(=O)O)cc2)c1=O)C(=O)C(F)(F)F (centres undefined) | –
15 | 2.57 | CC(C)C(NC(=O)Cn1c(-c2ccccc2)ccc(NS(=O)(=O)NCc2ccccc2)c1=O)C(=O)C(F)(F)F (centres undefined) | –
16 | 2.5 | COc1ccc(S(=O)(=O)Nc2ccc(-c3ccccc3)n(CC(=O)NC(C(=O)C(F)(F)F)C(C)C)c2=O)cc1 (centres undefined) | –
17 | 2.53 | CC(C)C(NC(=O)Cn1c(-c2ccccc2)ccc(NS(=O)(=O)c2ccccc2)c1=O)C(=O)C(F)(F)F (centres undefined) | –
18 | – | CC(=O)Nc1ccc(S(=O)(=O)Nc2ccc(-c3ccccc3)n(CC(=O)NC(C(=O)C(F)(F)F)C(C)C)c2=O)cc1 (centres undefined) | logP [17]: Not detected
19 | 1.14 | CC(C)C(NC(=O)Cn1c(-c2ccccc2)ccc(NC(=O)Cc2ccccc2C(=O)O)c1=O)C(=O)C(F)(F)F (centres undefined) | –
20 | 2.84 | CC(C)C(NC(=O)Cn1c(-c2ccccc2)ccc(NC(=O)NCc2cccnc2)c1=O)C(=O)C(F)(F)F (centres undefined) | –
21 | 1.48 | CC(C)C(NC(=O)Cn1c(-c2ccccc2)ccc(NC(=O)NCc2ccc[n+]([O-])c2)c1=O)C(=O)C(F)(F)F (centres undefined) | –
22 | 2.37 | CCNc1ccc(-c2ccccc2)n(CC(=O)NC(C(=O)C(F)(F)F)C(C)C)c1=O (centres undefined) | –
23 | – | CC(C)C(NC(=O)Cn1c(-c2ccccc2)ccc(NC(=O)OCc2cccc(C(=O)O)c2)c1=O)C(=O)C(F)(F)F (centres undefined) | logP [17]: Not detected
24 | 1.78 | CC(=O)Nc1ccc(-c2ccccc2)n(CC(=O)NC(C(=O)C(F)(F)F)C(C)C)c1=O (centres undefined) | Tmax [6]: 0.25 h; half-life [7]: 1.9 h; Cmax [18]: 2780 ng/mL; bioavailability [19]: 35%
25 | – | CC(C)C(NC(=O)Cn1c(-c2ccccc2)ccc(NS(=O)(=O)Cc2ccccc2)c1=O)C(=O)C(F)(F)F (centres undefined) | logP [17]: Not detected
26 | 1.84 | CC(C)C(NC(=O)Cn1c(-c2ccccc2)ccc(NC=O)c1=O)C(=O)C(F)(F)F (centres undefined) | –
